The record followed here is US5326882A, “Chemiluminescent 3-(substituted Adamant-2'-Ylidene) 1,2-dioxetanes” (Tropix, Inc., priority 1992, dated 1994).

Test [1] deals with T1, alkaline phosphatase (Bos taurus, UniProt P19111). Description: Half-time to plateau at low alkaline phosphatase concentration (Example XLI). It is filed as biochemical. The settings on record: 0.4 mM dioxetane at pH 10.0; 31.5° C.; 2.53 × 10^-13 M alkaline phosphatase.
In test [2] the target is T1, alkaline phosphatase. Description: Chemiluminescent signal-to-noise levels with enhancers (Example XXIV). It is filed as biochemical. The method, then: The chemiluminescent signal to noise levels were obtained with 2.83×10^-13 M alkaline phosphatase and various R-substituted adamantyl 1,2-dioxetane phosphates in the presence of several enhancers. All measurements were performed in a Berthold LB952T luminometer at room temperature. First, the background chemiluminescence levels (signal in the absence of the enzyme) of each sample (in triplicate) were measured. Each sample consisted of 0.2 μmoles of dioxetane in 0.45 ml of 0.1 M diethanolamine, 1 mM MgCl2, pH 10.0, without or with 1 mg/ml of the indicated enhancer. Tubes were inserted into the luminometer and the luminescence intensity was measured. Next, the tubes were removed from the luminometer and alkaline phosphatase (50 μl containing 1.415×10^-16 moles) was added to each tube, and the luminescence intensity was measured at 5 and 20 minutes after substrate addition. The final concentration of dioxetane in each tube was 0.4 mM.
All enhancers used at 1 mg/ml in 0.1 M DEA, pH 10. Alkaline phosphatase concentration=2.83×10^-13 M. Measurements performed in a Berthold LB952T Luminometer.

The target in test [3] is T1, alkaline phosphatase. The test is described as follows: Detection limits for alkaline phosphatase, Berthold LB952T (Example XXII). The settings on record: twice background. It is filed as biochemical. The method, then:
(§1) The detection means for alkaline phosphatase with different chemiluminescent 1,2-dioxetane substrates were determined as follows: Duplicates of serial dilutions (1 to 3) of alkaline phosphates were incubated at room temperature with 0.4 mM dioxetane in 0.1 M diethanolamine, 1 mM MgCl2, pH 10.0, containing 1 mg/ml of either of the polymeric enhancers Enhancer 1 or Enhancer 2, in […].
(§2) Following either a 5 or a 20 minute incubation with a substrate, the chemiluminescence intensity was measured as a 5 second integrated Relative Light Units (RLU) and plotted as in FIG. 10. […] The alkaline phosphatase concentrations at twice background were used as the detection limits in Table 5.

The target of test [4] is T2, alkaline phosphatase (calf intestine; Biozyme) (Bos taurus, UniProt P19111).
T2 construct: purchased Biozyme; host or cells: calf intestine
T2 sequence (P19111 20-506 limits assumed): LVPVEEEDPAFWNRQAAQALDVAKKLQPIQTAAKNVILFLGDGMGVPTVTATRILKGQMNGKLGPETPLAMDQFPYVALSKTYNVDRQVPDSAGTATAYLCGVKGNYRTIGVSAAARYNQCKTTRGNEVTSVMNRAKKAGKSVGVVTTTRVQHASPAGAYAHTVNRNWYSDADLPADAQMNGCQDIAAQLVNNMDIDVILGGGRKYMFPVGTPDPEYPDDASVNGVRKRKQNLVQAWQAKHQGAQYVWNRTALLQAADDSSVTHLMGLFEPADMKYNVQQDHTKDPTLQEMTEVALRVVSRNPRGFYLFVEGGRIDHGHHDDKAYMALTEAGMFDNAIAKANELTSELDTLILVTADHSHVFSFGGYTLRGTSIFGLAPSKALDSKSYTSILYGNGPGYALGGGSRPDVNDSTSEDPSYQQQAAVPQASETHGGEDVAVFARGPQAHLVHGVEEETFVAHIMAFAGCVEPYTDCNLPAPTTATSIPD
The test is described as follows: Total dephosphorylation, chemiluminescence decay (Example XIII). The format is biochemical. The settings on record: 30° C., carbonate/bicarbonate buffer. How it is done: A comparison of the total luminescence emission from AMPPD and from the corresponding 1,2-dioxetanes whose adamant-2'-ylidene groups are monosubstituted with hydroxy (A and B isomers), chloro and bromo groups was made by carrying out total dephosphorylation experiments on each of these compounds.
An aqueous solution of the 1,2-dioxetane (4.0 mm) in 0.05M sodium carbonate/sodium bicarbonate containing 1 mM magnesium chloride was prepared and then equilibrated at 30° C. Ten μl of a 7.64×10M aqueous solution of alkaline phosphatase (calf intestine; Biozyme) was then added, and the chemiluminescence from the resulting solution was recorded using a Turner Model 20E luminometer (Turner Instruments; Sunnyvale, Calif.).
The rates of chemiluminescence decay for each of the five compounds in question, expressed in relative light units (RLU's) per minute, are given in the following table.

Test [5] deals with T3, alkaline phosphatase-labeled DNA probe (Bos taurus, UniProt P19111).
T3 construct: purchased Tropix, Inc
T3 sequence (P19111 20-506 limits assumed): as above
T3 sequence (P02701 25-152 partner): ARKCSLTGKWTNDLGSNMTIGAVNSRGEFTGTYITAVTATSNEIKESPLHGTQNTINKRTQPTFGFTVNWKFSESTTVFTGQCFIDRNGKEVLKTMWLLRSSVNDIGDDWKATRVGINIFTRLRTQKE
Description: Alkaline phosphatase-labeled DNA probe detection in membrane with and without BDMQ blocking step (Example XV). The settings on record: for Detection limit (in picograms DNA) 5. min. exp.: five minute exposure 40 minutes after dioxetane addition; for Detection limit (in picograms DNA) 1 min. exp.: one minute exposure 77 minutes after dioxetane addition. How it is done:
pBr 322 plasmid (4700 bp) was subjected to a nick translation process using a Trans-Light kit (Tropix, Inc., Bedford, Mass.) to generate a mixture of biotinylated single stranded polynucleotides of 200-2000 bps in length.
This mixture was dotted onto a dry BIODYNE A membrane as five parallel columns of dots of the following concentrations:
The membrane was subjected to ultraviolet irradiation (UVP Mineral Light; UVP, San Gabriel, Calif.) for 3 minutes to fix the DNA to the surface of the membrane, then air dried. Next, the membrane was blocked in 0.2% casein/0.1% Tween 20 detergent in PBS for 1 hour, following which 1/5000 diluted avidin-alkaline phosphatase conjugate (Tropix, Inc.) in 0.2% casein in PBS was added. The membrane was then incubated for 30 minutes, washed three times (for 5 minutes each time) in 0.2% casein/0.1% Tween 20 detergent in PBS and washed once for five minutes in aqueous 0.1M diethanolamine containing 1 mm magnesium chloride and 0.02% sodium azide, pH 10.0 (substrate buffer).
Next, the five columns of rows of dots 1-5 were individually cut from the membrane ("strips 1-5"), as were the five columns of rows of dots 6-10 ("strips 6-10"). Strips 1-5 were washed with substrate buffer for 30 minutes. Strips 6-10 were blocked in 0.1% BDMQ in substrate buffer for 30 minutes. Both sets of strips were then incubated for 5 minutes in substrate buffer, then individually incubated for five minutes in aqueous solutions (0.25 mM) of 1,2-dioxetanes as indicated below:
All strips were then placed in camera luminometers and exposed on Polaroid Type 612 instant black and white film.

Test [6] has as its target T1, alkaline phosphatase. Description: Alkaline phosphatase detection limits, Wilj microtiter plate luminometer (Example XXVI). It is filed as biochemical. The settings on record: 23 MINUTE INCUBATION
Test [7] concerns the target T1, alkaline phosphatase. The test is described as follows: Alkaline phosphatase detection limits, LabSystems Luminoskan (Example XXV). The format is biochemical. The method, then:
as §1, §2
The luminometer used in this example was LabSystems Luminoskan microtiter plate reader.

Setting [8] is: enhancer NONE, 5 min, alkaline phosphatase 2.83×10^-13 M.

T1 sequence (P19111 20-506 limits assumed): as the sequence (P19111 20-506 limits assumed) above

As for `COC12CC3CC(C1)C1(OOC1(OC)c1cccc(OP(=O)(O)O)c1)C(C3)C2` (single isomer, unassigned) [CH3 O-AMPPD-A], on alkaline phosphatase [1], the “HALF-TIME TO PLATEAU (min.) AL LOW ALK PHOS CONCENTRATION” value (shortened to “HALF-TIME TO PLATEAU”) is 0.86 min.
For `COC1(c2cccc(OP(=O)(O)O)c2)OOC12C1CC3CC2CC(O)(C3)C1` (single isomer, unassigned) [HO-AMPPD], the chemiluminescent signal-to-noise level at alkaline phosphatase [2] (EMERALD 1 1 mg/ml, 5 min) is given as 307; on alkaline phosphatase [2] (EMERALD 1 1 mg/ml, 20 min), 386; at alkaline phosphatase [2] (EMERALD 2 1 mg/ml, 5 min) it was 247; at alkaline phosphatase [2] (EMERALD 2 1 mg/ml, 20 min), 299; on alkaline phosphatase [2] (SAPPHIRE 1 1 mg/ml, 5 min), 229; at alkaline phosphatase [2] (SAPPHIRE 1 1 mg/ml, 20 min), 305. The chemiluminescent signal-to-noise level at alkaline phosphatase [2] (SAPPHIRE 2 1 mg/ml, 5 min) is recorded as 466; on alkaline phosphatase [2] (SAPPHIRE 2 1 mg/ml, 20 min), 643; at alkaline phosphatase [2] (setting [8]), 55; on alkaline phosphatase [2] (enhancer NONE, 20 min) it was 73. For the same compound, the “Detection limit for alkaline phosphatase” value on alkaline phosphatase [3] (ENHANCER 1, 5 MIN) stood at 3.0 femtomoles/liter; at alkaline phosphatase [3] (ENHANCER 1, 20 MIN) it was 0.8 femtomoles/liter; at alkaline phosphatase [3] (ENHANCER 2, 5 MIN), 1.0 femtomoles/liter; on alkaline phosphatase [3] (ENHANCER 2, 20 MIN) it was 0.3 femtomoles/liter.
With `COC1(c2cccc(OP(=O)(O)O)c2)OOC12C1CC3CC2CC(I)(C3)C1` (single isomer, unassigned) [ISPD-A], the “HALF-TIME TO PLATEAU” value on alkaline phosphatase [1] was determined as 0.64 min.
Still for that read-out and setting: the figure for `COC1(c2cccc(OP(=O)(O)O)c2)OOC12C1CC3CC2CC(I)(C3)C1` (single isomer, unassigned) [ISPD-B] is 0.70 min; for `COC1(c2cccc(OP(=O)(O)O)c2)OOC12C1CC3CC2CC(OC(C)C)(C3)C1` (single isomer, unassigned) [i-PrO-AMPPD-A] it is 0.93 min.
As to `COC1(c2cccc(OP(=O)(O)O)c2)OOC12C1CC3CC2CC(OC(C)C)(C3)C1` (single isomer, unassigned) [i-PrO-AMPPD-B], at alkaline phosphatase [1], the “HALF-TIME TO PLATEAU” value came to 0.68 min.
On to `COC1(c2cccc(OP(=O)(O)O)c2)OOC12C1CC3CC2CC(Br)(C3)C1` (centres unmarked) [Br-AMPPD, disodium 3-(4-methoxyspiro-[1,2-dioxetane-3,2'-(5'-bromo)tricyclo[3.3.1.1^3,7]decan]-4-yl) phenyl phosphate], for which the chemiluminescent signal-to-noise level at alkaline phosphatase [2] (EMERALD 1 1 mg/ml, 5 min) is on record as 149; on alkaline phosphatase [2] (EMERALD 1 1 mg/ml, 20 min), 915; on alkaline phosphatase [2] (EMERALD 2 1 mg/ml, 5 min), 315; on alkaline phosphatase [2] (EMERALD 2 1 mg/ml, 20 min) it was 503; at alkaline phosphatase [2] (SAPPHIRE 1 1 mg/ml, 5 min), 383; at alkaline phosphatase [2] (SAPPHIRE 1 1 mg/ml, 20 min) it was 566. Further, the chemiluminescent signal-to-noise level on alkaline phosphatase [2] (SAPPHIRE 2 1 mg/ml, 5 min) was found to be 688; at alkaline phosphatase [2] (SAPPHIRE 2 1 mg/ml, 20 min) it was 1019; on alkaline phosphatase [2] (setting [8]) it was 77; on alkaline phosphatase [2] (enhancer NONE, 20 min) it was 92. Besides, the “Total Decay Time” value in test [4] was 40 min. The “Decay Rate I” value in test [4] (RLU's per minute) came to 1.2 RLU's per minute. Further, in test [4] (RLU's per minute), the “Decay Rate II” value stood at 0.8 RLU's per minute. In addition, the “Detection limit (in picograms DNA) 5. min. exp.” value in test [5] (BDMQ blocking step) was 0.313 picograms DNA; in test [5] (no BDMQ blocking step), 1.250 picograms DNA. The “Detection limit (in picograms DNA) 1 min. exp.” value was determined as 0.313 picograms DNA in test [5] (BDMQ blocking step) and 2.500 picograms DNA in test [5] (no BDMQ blocking step). Further, the “Detection limit for alkaline phosphatase” value on alkaline phosphatase [3] (ENHANCER 1, 5 MIN) came out at 2.6 femtomoles/liter; on alkaline phosphatase [3] (ENHANCER 1, 20 MIN) it was 0.5 femtomoles/liter; at alkaline phosphatase [3] (ENHANCER 2, 5 MIN) it was 0.4 femtomoles/liter; on alkaline phosphatase [3] (ENHANCER 2, 20 MIN), 0.3 femtomoles/liter. In addition, the “Alkaline phosphatase detection limit (at 2× background)” value at alkaline phosphatase [6] (SAPPHIRE II) was 0.00074 pM; on alkaline phosphatase [6] (SAPPHIRE), 0.00021 pM; at alkaline phosphatase [7] (SAPPHIRE II, 5 MINUTE INCUBATION), 0.0004 pM; at alkaline phosphatase [7] (SAPPHIRE II, 20 MINUTE INCUBATION) it was 0.00039 pM; at alkaline phosphatase [7] (SAPPHIRE, 5 MINUTE INCUBATION) it was 0.0027 pM; at alkaline phosphatase [7] (SAPPHIRE, 20 MINUTE INCUBATION) it was 0.0004 pM.
Take `COC1(c2cccc(OP(=O)(O)O)c2)OOC12C1CC3CC2CC(Br)(C3)C1` (centres unmarked) [BrSPD]: the “HALF-TIME TO PLATEAU” value on alkaline phosphatase [1] is 0.70 min.
The same measure, in the same setting: the figure for `COC1(c2cccc(OP(=O)(O)O)c2)OOC12C1CC3CC2CC(Cl)(C3)C1` (centres unmarked) [CSPD] is 0.71 min; for `COC1(c2cccc(OP(=O)(O)O)c2)OOC12C1CC3CC2CC(F)(C3)C1` (centres unmarked) [FSPD] it is 0.74 min; for `CCCCOC12CC3CC(C1)C1(OOC1(OC)c1cccc(OP(=O)(O)O)c1)C(C3)C2` (centres unmarked) [n-BuO-AMPPD] it is 0.71 min.
